The text below walks through data of patent US20160287536A1, “Composition” (THE UNIVERSITY OF NOTTINGHAM, priority 2013, published 2016).

Where “and” joins values, the source holds several entries; their conditions need not be identical. Equal values may be shown once.

One test relates to nitric oxide synthase. To be noted: 100 μM; cited from earlier work.
Another test relates to vascular preparations. The conditions noted are these: 100 μM; cited from earlier work.
Test [1] concerns sheep isolated rectal artery. Kind of test: Wire myography, sheep isolated rectal artery (SRA). The conditions noted are these: for Kb: Ovis aries. Format: cell-based. On the procedure:
(§1) Sheep mesenteric tissue, from the distal sigmoid colon to the anus, was obtained from a local abattoir. The sheep tissue was delivered in a dry bag and stored at 4° C. until dissected. The bundle of sheep rectal vessels was dissected from its mesentery within four hours of arrival from the abattoir. The vascular bundle was then kept in the pre-oxygenated Krebs-Henseleit buffer solution at 4° C. until used (on the same day as a preferential method or on the following day after storage overnight). No experiments were conducted on tissue stored for more than 24 hours after dissection. The Krebs solution consisted of 118.4 mM NaCl, 4.7 mM KCl, 1.2 mM MgSO4, 1.2 mM KH2PO4, 1.25 mM CaCl2, 24.9 mM NaHCO3, and 11.1 mM glucose.
(§2) Before setting a wire myography experiment, the remaining loose connective tissue was meticulously removed from the rectal vessels. The internal diameter of sheep isolated rectal artery and vein was 450-650 μm and 500-1000 μm, respectively. Each 5-mm ring segment of the ‘clean’ vessels was then suspended between two 200-μm wire supports in an organ bath containing 20 ml Krebs-Henseleit buffer solution. The upper supporting wire was attached to an isometric force transducer, while the lower wire was fixed steadily to a clamped glass rod. The bath solution was maintained at 37° C., and continuously gassed with 95% O2 and 5% CO2. Isometric tension was continuously recorded using a PowerLab 4/25 via QUAD Bridge amplifier (ADInstruments, Inc, Australia).
(§3) After a 10-minute equilibration period, an initial tension of 8 gram weight (g wt) was gradually applied for an arterial segment and left to relax for 30 minutes. The final tension of SRA varied between 1.0 g wt and 2.8 g wt. For a venous segment, an initial tension of 1 g wt was applied and, 10 minutes later, the resting tension was finally re-adjusted to reach a tension of 0.5 g wt. Then the vein was left to relax for further 20 minutes. The final tension of SRV ranged from 0.08 to 0.25 g wt. Once the vascular segments were fully settled, the tissues were tested for contractile activity with 60 mM KCl on three occasions. The vascular contraction was allowed to reach maximum, which generally took about 1-4 minutes. Each KCl challenge was followed by two washouts of 37° C. Krebs solution and the tissues were allowed to rest for 20 minutes between the challenges. The maximum contraction (tension) produced by the third administration of 60 mM KCl was used as a reference contraction to which subsequent responses were compared. After the final (3rd) KCl challenge, the tissues were washed and left for 60 minutes before α-adrenoceptor agonist was administrated. To construct an agonist concentration-response curves (CRC), 0.3-0.4 log 10 increments of agonist solution was added e.g. at the agonist concentration of 100 nM, 200 nM, 500 nM, 1 μM, 2 μM, 5 μM, and so on. Each response was allowed to reach equilibrium or plateau before the next dose of agonist was added. The maximal response to the agonist was considered when no further increase in response occurred upon the addition of two or more consecutive doses of agonist.
(§4) In the case of the noradrenaline study, 10 μM cocaine was added into the organ bath 40 minutes prior to the administration of noradrenaline for inhibiting the uptake of noradrenaline by neural tissue within the vascular wall (re-uptake 1) (Westfall & Westfall, 2006 In Goodman & Gilman's the Pharmacological Basis of Therapeutics. eds Brunton, L. L., Lazo, J. S. & Paker, K. L. pp. 137-181. New York: McGraw Hill). Regarding KCl-induced vasoconstriction, the CRC was generated by the contractile response to 6 mM increments of KCl solution, starting from 0 mM to 60 mM.
(§5) Consecutive CRCs were generated to each agonist, separated by 60 minutes, and if there was no difference in the maximum response (Emax) and pEC50 (defined as the negative logarithm of the concentration required to produce 50% of the maximum response) then a paired CRC protocol was used throughout. […]

The subject of test [2] is sheep isolated rectal vein. Kind of test: Wire myography, sheep isolated rectal vein (SRV). It is filed as cell-based. The conditions noted are these: SRV. The protocol:
as §1, §2, §3, §4, §5

Test [3] concerns human isolated mesenteric artery. The experiment in a line: Wire myography, human isolated mesenteric (colonic/rectal) artery (HMA). It is filed as cell-based. The source says: (§6) After obtaining approval from the local research ethics committee (Reference number: 05/Q2403/171) and having written consent from the patient, human mesenteric (colonic or rectal) vessels were collected from patients who underwent colectomy and/or proctectomy at the Division of Gastrointestinal Surgery, Queen's Medical Centre, University of Nottingham, UK, between August 2009 and March 2010. Patients with a history of previous abdominal/pelvic radiotherapy, and patients with endocrine tumours or concomitant intraabdominal infection were excluded from this study. In an operating room, the mesentery containing the required segment of blood vessels was dissected from the whole surgical specimen immediately after it was removed from a patient. The tissue was then kept in a 100-ml pot containing pre-oxygenated Krebs-Henseleit buffer solution maintained at 4° C. until used. No experiments were conducted on tissue stored for more than 12 hours after dissection. The Krebs solution consisted of 118.4 mM NaCl, 4.7 mM KCl, 1.2 mM MgSO4, 1.2 mM KH2PO4, 1.25 mM CaCl2, 24.9 mM NaHCO3, and 11.1 mM glucose.
Before setting a wire myography experiment, human mesenteric (colonic/rectal) vessels were meticulously dissected from the surrounding mesenteric fatty tissue. The ‘clean’ vessel was then divided into 5-mm ring segments. […]

The test system of test [4] is human isolated mesenteric vein. The experiment in a line: Wire myography, human isolated mesenteric (colonic/rectal) vein (HMV). Format: cell-based.
Text: as §6
Before setting a wire myography experiment, human mesenteric (colonic/rectal) vessels were meticulously dissected from the surrounding mesenteric fatty tissue. The ‘clean’ vessel was then divided into 5-mm ring segments. Generally, the internal diameter of vessels ranged between 400-1000 μm for human mesenteric artery (HMA) and 500-1200 μm for human mesenteric vein (HMV). Each 5-mm ring segment was suspended between two 200-μm wire supports in an organ bath containing 20 ml Krebs-Henseleit buffer solution. The contractile study of human mesenteric vessels was then set in the similar manner of the previous study on sheep isolated rectal vessels.
After a 20-minute equilibration period, an initial resting tension of 8 and 1 gram weight (g wt) was gradually applied to arterial and venous ring segments, respectively, and left to relax for 30 minutes. The final resting tension varied between 1.8 g wt and 3.2 g wt for HMA, and between 0.07 g wt and 0.35 g wt for HMV. Once the vascular segments were fully settled, they were tested for contractile activity with 60 mM KCl three occasions, and an agonist concentration-response curves (CRC) was then reconstructed after the vessels were left to equilibrate for 60 minutes as previously described for sheep rectal vessels. […] In the case of noradrenaline study, 10 μM cocaine was added into the organ bath 40 minutes prior to the administration of noradrenaline for inhibiting the uptake of noradrenaline by neural tissue within the vascular wall (re-uptake 1) (Westfall & Westfall, 2006 In Goodman & Gilman's the Pharmacological Basis of Therapeutics. eds Brunton, L. L., Lazo, J. S. & Paker, K. L. pp. 137-181. New York: McGraw Hill).
Although it appeared that the CRCs of several vasoconstrictors were reproducible (no significant change in maximum response and agonist potency) in human mesenteric vessels, a single CRC, paired segment approach was adopted throughout the study of human blood vessels. This was due to a desire to limit the time of tissue storage and the ease of tissue preparation. The single CRC, paired segment approach involves the generation of only one agonist CRC per tissue. The maximum response (Emax) and pEC50 (defined as the negative logarithm of the concentration required to produce 50% of the maximum response) of each vascular segment were compared to those of other vascular segments (adjacent segments from the same patient, or other segments from different patients).
If the vessel had spontaneous and periodic contraction after the administration of S(−)-BayK8644—which occurred in 70% of HMA and 80% of HMV, the effect of agonist would be considered when there was an increase in the frequency of contraction as well as a rise in the baseline of vascular tone.
The selective α1-adrenoceptor antagonist prazosin and selective α2-adrenoceptor antagonist RX811059 were used in this study. […]

In test [5] the test system is porcine isolated tail artery. On the procedure: U46619 was added to produce a contraction equivalent to 60% of KCl followed by sufficient to forskolin to causes a relaxation back to baseline. Cumulative concentration response curves to brimondine and phenylephrine were elicited in the presence and absence of the combination of U4/For. Responses have been expressed a percent of the contraction to 60 mM KCl and represent the mean of 5-6 separate observations.

`CN(C)C(N)=NCCC[C@H](N)C(=O)O` [ADMA, Asymmetric dimethyl arginine]: the “inhibition of nitric oxide synthase” value in the test with nitric oxide synthase is listed as “inhibit nitric oxide synthase”. In addition, the “effect on vasoconstrictor responses to phenylephrine” value with vascular preparations is on record as “enhance the vasoconstrictor responses to phenylephrine”.
With `COC(=O)C1=C(C)NC(C)=C([N+](=O)[O-])[C@H]1c1ccccc1C(F)(F)F` [S(−)-BayK8644, (4S)-1,4-dihydro-2,6-dimethyl-5-nitro-4-[2-(trifluoromethyl)-phenyl]-3-pyridine carboxylic acid methyl ester], the “effect on 5-HT-induced contraction” value in test [1] (SRA and SRV, 1 μM) is recorded as “no effect”. Moreover, in test [1] (SRA, 1 μM), the “effect on potency of KCl” value is given as “significantly increased the potency” and the “observations with spontaneous contraction” value was 6%. In test [2] (1 μM), the “effect on potency of noradrenaline” value is “significantly increased the potency”. In test [3] (1 μM), the “vessels with spontaneous phasic contraction” value is 70% and 71%. For the same compound, in test [4] (1 μM), the “vessels with spontaneous phasic contraction” value is 80% and 83%.
As for `Brc1c(NC2=NCCN2)ccc2nccnc12` [UK14304, brimonidine], the “contractile response” value in test [2] was “concentration-dependent contractions”. For the same compound, the “veins with concentration-dependent contraction” value in test [2] (the rest <10% of the response to 60 mM KCl) was 6 out of 12. Moreover, the “contractile responses in the presence of the combination of U46619 and forskolin” value in test [5] is listed as “enhanced”.
As for `COc1cc2nc(N3CCN(C(=O)c4ccco4)CC3)nc(N)c2cc1OC` [prazosin], the Kb in test [1] (SRA and SRV, contraction to noradrenaline (summary)) is 0.158 to 0.398 nM; in test [1] (SRA, 2 nM prazosin against noradrenaline-induced contraction) it was 0.398 nM; in test [2] (Ovis aries, 10 nM prazosin / 30 nM RX811059 against noradrenaline), 0.17 nM; in test [3] (Homo sapiens, noradrenaline-induced contractions) it was 0.316 nM. Also, the “effect on the noradrenaline CRC” value in test [1] (SRA, prazosin 0.4-10 nM, RX811059 30 nM) was “concentration-dependent, parallel rightward shift”. The “rightward shift of the CRC for noradrenaline” value in test [2] (prazosin 10 nM, RX811059 30 nM) came to 70 fold. The “effect on potency of noradrenaline” value in test [4] (10 nM prazosin, 30 nM RX811059) is “significantly reduced the potency of noradrenaline”.
